From PubChem BioAssay (NCI)
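Growth conditions: 96-well plates. Treatment: test compound, 48 hours, 5 concentrations. Analysis: linear interpolation between bracketing concentrations; unreached endpoints set to highest concentration. GI50 = concentration required for 50% inhibition of growth. TGI: total growth inhibition.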

How the values were obtained:
Assay in all cases: NCI anticancer screen, dose series, 48 h
786-0 renal = system: 786-0 renal
A498 renal = system: A498 renal
A549 NSCLC = system: A549 NSCLC
BT-549 breast = system: BT-549 breast
CAKI-1 renal = system: CAKI-1 renal
CCRF-CEM leukemia = system: CCRF-CEM leukemia
COLO 205 colon = system: COLO 205 colon
DU-145 prostate = system: DU-145 prostate
EKVX NSCLC = system: EKVX NSCLC
HCC-2998 colon = system: HCC-2998 colon
HCT-116 colon = system: HCT-116 colon
HCT-15 colon = system: HCT-15 colon
HOP-62 NSCLC = system: HOP-62 NSCLC
HOP-92 NSCLC = system: HOP-92 NSCLC
HS 578T breast = system: HS 578T breast
HT29 colon = system: HT29 colon
IGROV1 ovarian = system: IGROV1 ovarian
K-562 leukemia = system: K-562 leukemia
LOX IMVI melanoma = system: LOX IMVI melanoma
M14 melanoma = system: M14 melanoma
MCF7 breast = system: MCF7 breast
MDA-MB-231 breast = system: MDA-MB-231 breast
MDA-MB-435 = system: MDA-MB-435
MOLT-4 leukemia = system: MOLT-4 leukemia
NCI-H226 lung = system: NCI-H226 lung
NCI-H23 lung = system: NCI-H23 lung
NCI-H460 lung = system: NCI-H460 lung
NCI-H522 lung = system: NCI-H522 lung
NCI/ADR-RES ovarian = system: NCI/ADR-RES ovarian
OVCAR-3 ovarian = system: OVCAR-3 ovarian
OVCAR-4 ovarian = system: OVCAR-4 ovarian
OVCAR-5 ovarian = system: OVCAR-5 ovarian
OVCAR-8 ovarian = system: OVCAR-8 ovarian
PC-3 prostate = system: PC-3 prostate
RPMI-8226 leukemia = system: RPMI-8226 leukemia
RXF 393 renal = system: RXF 393 renal
SF-268 CNS = system: SF-268 CNS
SF-295 CNS = system: SF-295 CNS
SF-539 CNS = system: SF-539 CNS
SK-MEL-2 melanoma = system: SK-MEL-2 melanoma
SK-MEL-28 melanoma = system: SK-MEL-28 melanoma
SK-MEL-5 melanoma = system: SK-MEL-5 melanoma
SK-OV-3 ovarian = system: SK-OV-3 ovarian
SN12C renal = system: SN12C renal
SNB-19 CNS = system: SNB-19 CNS
SNB-75 CNS = system: SNB-75 CNS
SW-620 colon = system: SW-620 colon
T-47D breast = system: T-47D breast
U251 CNS = system: U251 CNS
UACC-257 melanoma = system: UACC-257 melanoma
UACC-62 melanoma = system: UACC-62 melanoma
UO-31 renal = system: UO-31 renal
ACHN renal = system: ACHN renal
KM12 colon = system: KM12 colon
MALME-3M melanoma = system: MALME-3M melanoma
SR leukemia = system: SR leukemia
TK-10 renal = system: TK-10 renal

With `O=c1[nH]c(=O)c2cc(C3CC(O)C(CO)O3)ccc2[nH]1` (stereo not drawn) the GI50 (786-0 renal) was greater than 100 µM, the TGI (786-0 renal) was greater than 100 µM and the GI50 (A498 renal) was greater than 100 µM. For the same compound, the TGI (A498 renal) was greater than 100 µM, the GI50 (A549 NSCLC) was greater than 100 µM and the TGI (A549 NSCLC) was greater than 100 µM. The GI50 (BT-549 breast) was greater than 100 µM, the TGI (BT-549 breast) was greater than 100 µM and the GI50 (CAKI-1 renal) was greater than 100 µM. For the same compound, the TGI (CAKI-1 renal) was greater than 100 µM, the GI50 (CCRF-CEM leukemia) was greater than 100 µM and the TGI (CCRF-CEM leukemia) was greater than 100 µM. It also gave a GI50 (COLO 205 colon) greater than 100 µM, a TGI (COLO 205 colon) greater than 100 µM and a GI50 (DU-145 prostate) greater than 100 µM. For the same compound, the TGI (DU-145 prostate) was greater than 100 µM, the GI50 (EKVX NSCLC) was greater than 100 µM and the TGI (EKVX NSCLC) was greater than 100 µM. The GI50 (HCC-2998 colon) was greater than 100 µM, the TGI (HCC-2998 colon) was greater than 100 µM and the GI50 (HCT-116 colon) was greater than 100 µM. For the same compound, the TGI (HCT-116 colon) was greater than 100 µM, the GI50 (HCT-15 colon) was 93.3 µM and the TGI (HCT-15 colon) was greater than 100 µM. It also gave a GI50 (HOP-62 NSCLC) greater than 100 µM, a TGI (HOP-62 NSCLC) greater than 100 µM and a GI50 (HOP-92 NSCLC) greater than 100 µM. The TGI (HOP-92 NSCLC) was greater than 100 µM, the GI50 (HS 578T breast) was greater than 100 µM and the TGI (HS 578T breast) was greater than 100 µM. For the same compound, the GI50 (HT29 colon) was greater than 100 µM, the TGI (HT29 colon) was greater than 100 µM and the GI50 (IGROV1 ovarian) was greater than 100 µM. The TGI (IGROV1 ovarian) was greater than 100 µM, the GI50 (K-562 leukemia) was greater than 100 µM and the TGI (K-562 leukemia) was greater than 100 µM. It also gave a GI50 (LOX IMVI melanoma) greater than 100 µM, a TGI (LOX IMVI melanoma) greater than 100 µM and a GI50 (M14 melanoma) greater than 100 µM. It also gave a TGI (M14 melanoma) greater than 100 µM, a GI50 (MCF7 breast) greater than 100 µM and a TGI (MCF7 breast) greater than 100 µM. It also gave a GI50 (MDA-MB-231 breast) greater than 100 µM, a TGI (MDA-MB-231 breast) greater than 100 µM and a GI50 (MDA-MB-435) greater than 100 µM. It also gave a TGI (MDA-MB-435) greater than 100 µM, a GI50 (MOLT-4 leukemia) greater than 100 µM and a TGI (MOLT-4 leukemia) greater than 100 µM. For the same compound, the GI50 (NCI-H226 lung) was greater than 100 µM, the TGI (NCI-H226 lung) was greater than 100 µM and the GI50 (NCI-H23 lung) was greater than 100 µM. For the same compound, the TGI (NCI-H23 lung) was greater than 100 µM, the GI50 (NCI-H460 lung) was greater than 100 µM and the TGI (NCI-H460 lung) was greater than 100 µM. For the same compound, the GI50 (NCI-H522 lung) was greater than 100 µM, the TGI (NCI-H522 lung) was greater than 100 µM and the GI50 (NCI/ADR-RES ovarian) was greater than 100 µM. The TGI (NCI/ADR-RES ovarian) was greater than 100 µM, the GI50 (OVCAR-3 ovarian) was greater than 100 µM and the TGI (OVCAR-3 ovarian) was greater than 100 µM. It also gave a GI50 (OVCAR-4 ovarian) of 43.5 µM, a TGI (OVCAR-4 ovarian) greater than 100 µM and a GI50 (OVCAR-5 ovarian) greater than 100 µM. It also gave a TGI (OVCAR-5 ovarian) greater than 100 µM, a GI50 (OVCAR-8 ovarian) greater than 100 µM and a TGI (OVCAR-8 ovarian) greater than 100 µM. For the same compound, the GI50 (PC-3 prostate) was greater than 100 µM, the TGI (PC-3 prostate) was greater than 100 µM and the GI50 (RPMI-8226 leukemia) was greater than 100 µM. The TGI (RPMI-8226 leukemia) was greater than 100 µM, the GI50 (RXF 393 renal) was greater than 100 µM and the TGI (RXF 393 renal) was greater than 100 µM. It also gave a GI50 (SF-268 CNS) greater than 100 µM, a TGI (SF-268 CNS) greater than 100 µM and a GI50 (SF-295 CNS) greater than 100 µM. It also gave a TGI (SF-295 CNS) greater than 100 µM, a GI50 (SF-539 CNS) greater than 100 µM and a TGI (SF-539 CNS) greater than 100 µM. The GI50 (SK-MEL-2 melanoma) was greater than 100 µM, the TGI (SK-MEL-2 melanoma) was greater than 100 µM and the GI50 (SK-MEL-28 melanoma) was greater than 100 µM. For the same compound, the TGI (SK-MEL-28 melanoma) was greater than 100 µM, the GI50 (SK-MEL-5 melanoma) was greater than 100 µM and the TGI (SK-MEL-5 melanoma) was greater than 100 µM. The GI50 (SK-OV-3 ovarian) was greater than 100 µM, the TGI (SK-OV-3 ovarian) was greater than 100 µM and the GI50 (SN12C renal) was greater than 100 µM. It also gave a TGI (SN12C renal) greater than 100 µM, a GI50 (SNB-19 CNS) greater than 100 µM and a TGI (SNB-19 CNS) greater than 100 µM. It also gave a GI50 (SNB-75 CNS) of 26.8 µM, a TGI (SNB-75 CNS) greater than 100 µM and a GI50 (SW-620 colon) greater than 100 µM. For the same compound, the TGI (SW-620 colon) was greater than 100 µM, the GI50 (T-47D breast) was greater than 100 µM and the TGI (T-47D breast) was greater than 100 µM. The GI50 (U251 CNS) was greater than 100 µM, the TGI (U251 CNS) was greater than 100 µM and the GI50 (UACC-257 melanoma) was greater than 100 µM. It also gave a TGI (UACC-257 melanoma) greater than 100 µM, a GI50 (UACC-62 melanoma) greater than 100 µM and a TGI (UACC-62 melanoma) greater than 100 µM. For the same compound, the GI50 (UO-31 renal) was greater than 100 µM and the TGI (UO-31 renal) was greater than 100 µM.
In the case of `COC(=O)CN1SC2(SC13C(C)(C)C(=O)C3(C)C)C(C)(C)C(=O)C2(C)C`, the TGI (786-0 renal) is reported as greater than 100 µM, the TGI (A498 renal) is reported as greater than 100 µM and the TGI (A549 NSCLC) is reported as greater than 100 µM. For the same compound, the TGI (ACHN renal) was greater than 100 µM, the TGI (BT-549 breast) was 90.3 µM and the TGI (CAKI-1 renal) was greater than 100 µM. For the same compound, the TGI (CCRF-CEM leukemia) was 32.8 µM, the TGI (COLO 205 colon) was greater than 100 µM and the TGI (DU-145 prostate) was greater than 100 µM. The TGI (EKVX NSCLC) was greater than 100 µM, the TGI (HCC-2998 colon) was greater than 100 µM and the TGI (HCT-116 colon) was greater than 100 µM. The TGI (HCT-15 colon) was greater than 100 µM, the TGI (HOP-62 NSCLC) was greater than 100 µM and the TGI (HOP-92 NSCLC) was 21.3 µM. For the same compound, the TGI (HS 578T breast) was greater than 100 µM, the TGI (HT29 colon) was greater than 100 µM and the TGI (IGROV1 ovarian) was greater than 100 µM. For the same compound, the TGI (K-562 leukemia) was greater than 100 µM, the TGI (KM12 colon) was greater than 100 µM and the TGI (LOX IMVI melanoma) was greater than 100 µM. The TGI (M14 melanoma) was greater than 100 µM, the TGI (MALME-3M melanoma) was greater than 100 µM and the TGI (MCF7 breast) was greater than 100 µM. It also gave a TGI (MDA-MB-231 breast) greater than 100 µM, a TGI (MDA-MB-435) greater than 100 µM and a TGI (MOLT-4 leukemia) greater than 100 µM. It also gave a TGI (NCI-H226 lung) of 93.8 µM, a TGI (NCI-H23 lung) greater than 100 µM and a TGI (NCI/ADR-RES ovarian) of 87.8 µM. It also gave a TGI (OVCAR-3 ovarian) greater than 100 µM, a TGI (OVCAR-4 ovarian) greater than 100 µM and a TGI (OVCAR-5 ovarian) greater than 100 µM. For the same compound, the TGI (OVCAR-8 ovarian) was greater than 100 µM, the TGI (PC-3 prostate) was greater than 100 µM and the TGI (RPMI-8226 leukemia) was greater than 100 µM. The TGI (SF-268 CNS) was greater than 100 µM, the TGI (SF-295 CNS) was greater than 100 µM and the TGI (SF-539 CNS) was greater than 100 µM. The TGI (SK-MEL-2 melanoma) was greater than 100 µM, the TGI (SK-MEL-28 melanoma) was greater than 100 µM and the TGI (SK-MEL-5 melanoma) was greater than 100 µM. For the same compound, the TGI (SK-OV-3 ovarian) was greater than 100 µM, the TGI (SN12C renal) was greater than 100 µM and the TGI (SNB-19 CNS) was greater than 100 µM. The TGI (SNB-75 CNS) was greater than 100 µM, the TGI (SR leukemia) was greater than 100 µM and the TGI (SW-620 colon) was greater than 100 µM. It also gave a TGI (T-47D breast) greater than 100 µM, a TGI (TK-10 renal) greater than 100 µM and a TGI (U251 CNS) greater than 100 µM. It also gave a TGI (UACC-257 melanoma) greater than 100 µM, a TGI (UACC-62 melanoma) greater than 100 µM and a TGI (UO-31 renal) greater than 100 µM.
